Measured values taken from article PMC7381729, “A new class of PentixaFor- and PentixaTher-based theranostic agents with enhanced CXCR4-targeting efficiency” (Theranostics, 2020).
Read-outs that look alike come from different tables or passages of the source. Each block holds one compound with its values, some of them ahead of it. Where a SMILES comes first, the peptide text is derived from it. Side-chain parts run from the residue outwards. [ ]: non-standard residue; d: D form. The star is where a group is joined. DOTA = O=C(O)CN1CCN(CC(=O)O)CCN(CC(=O)*)CCN(CC(=O)O)CC1; dTyr(3-I) = N[C@H](Cc1ccc(O)c(I)c1)C(=O)O; 2Nal = N[C@@H](Cc1ccc2ccccc2c1)C(=O)O; dNMeOrn = CN[C@H](CCCN)C(=O)O; 4Amb = NCc1ccc(C(=O)O)cc1; 4Abz = Nc1ccc(C(=O)O)cc1

Key:
[1] = test system: Daudi (human B-cell lymphoma) xenograft bearing CB-17 SCID mice; experiment: Biodistribution in Daudi xenograft bearing mice; assay type: in vivo, mouse; settings: for Biodistribution adrenals / Biodistribution blood / Biodistribution colon / Biodistribution femur / Biodistribution heart / Biodistribution kidney / Biodistribution liver / Biodistribution lung / Biodistribution muscle / Biodistribution small intestine / Biodistribution spleen / Biodistribution stomach / Biodistribution tumor (Daudi xenograft) / Biodistribution pancreas / Biodistribution brain: i.v., means ± SD; for Initial activity retained in the Daudi xenografts after 48h: 48h p.i. relative to early time point
Outline: (§1)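 Female CB-17 SCID mice with Daudi xenografts (n=4-5) received 5-10 MBq (0.08-0.11 nmol) ^68Ga- or ^177Lu-labelled ligand i.v.; blocking by coinjected 50 µg AMD3100. Organs counted by γ-counter at 1, 6 and 48 h p.i.; %ID/g (mean ± SD).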

[2] = In vivo metabolite analysis (radio-HPLC); set-up: species or system mouse; settings: CB17 SCID mice, 0.5h p.i., i.v. app. 35 MBq; radio-HPLC of extracts
Experimental: 68Ga-labeling was performed as published previously using a 68Ge/68Ga generator (iTHEMBA Labs, South Africa) and a GallElut + synthesis module (SCINTOMICS GmbH, Germany). Usually, 5 nmol of precursor peptide were used, yielding the 68Ga-labeled peptides in specific activities of 100 to 120 […]
For 177Lu-labeling, the peptides were dissolved in water to yield a 1 mM solution. Of this solution, the required volume was added to 177LuCl3 in 0.04 M HCl (ITG/ITM, Garching, Germany; activity concentration: 370 MBq/500 µl) to achieve a peptide-to -177Lu-activity ratio of 1 nmol peptide per 225 MBq 177LuCl3. To this mixture, 1 M NH4OAc was added (calculated to be 10% of total reaction volume), and the mixture was heated to 90°C for 4 0 min. […]
Human glioma U87 cells overexpressing CD4 and CXCR4 (U87CD4CXCR4) cells were kept in cultivation at least one week before starting the experiment. […] Perkin-Elmer’s LANCE cAMP assay kit (catalog #AD0262) based on time-resolved fluorescence resonance energy transfer (TR -FRET) was utilized to determine the ability of [natLu]DOTA -r -a -ABA -iodo CPCR4 and [ natLu]PentixaTher vs the reference CXCL12 to inhibit cAMP production induced by 5 µM Forskolin. […]
(15,000 g), and the supernatants were subjected to ultrafiltration. […] The blood extract was also analyzed by radio-HPLC. For all extracts the ex traction efficiency was determined in a ɣ -counter.

[3] = Lipophilicity, modified shake-flask method; assay type: physicochemical; settings: O/PBS, radiolabeled compound, means ± SD (n=6)
Experimental: The lipophilicity (log PO/PBS) of the ^68Ga- and ^177Lu-labeled compounds in this study was determined via a modified shake-flask method.

[4] = Biodistribution in Daudi xenograft bearing mice; assay type: in vivo, mouse; settings: female, CB-17 SCID, mouse, iv, total radioactivity, 48h p.i., means ± SD, n=4-5 animals
Outline: as §1

murine CXCR4 (mCXCR4) = biological target: T1, murine CXCR4 (mCXCR4) (Mus musculus, UniProt P70658); experiment: Competition binding to mCXCR4, Eµ-myc 1080 mouse lymphoma cells, [125I]CPCR4.3 as radioligand; settings: Eµ-myc 1080 mouse lymphoma cells 200.000 cells/sample, means ± SD of min. three separate experiments
T1 construct: mCXCR4-expressing Eµ-Myc1080 mouse B-cell lymphoma cells; endogenous in cells; host or cells: Eµ-Myc1080 mouse B-cell lymphoma cells (whole cells)
Experimental: Experiments were performed in triplicate with n=3 per concentration in each experiment. IC50 values were calculated using GraphPad Prism 6.01 (Graph Pad Software, San Diego, USA).

[5] = 1h p.i., tracer only, γ-counter, n=4-5 (68Ga: n=4)

T1 sequence (P70658 whole entry): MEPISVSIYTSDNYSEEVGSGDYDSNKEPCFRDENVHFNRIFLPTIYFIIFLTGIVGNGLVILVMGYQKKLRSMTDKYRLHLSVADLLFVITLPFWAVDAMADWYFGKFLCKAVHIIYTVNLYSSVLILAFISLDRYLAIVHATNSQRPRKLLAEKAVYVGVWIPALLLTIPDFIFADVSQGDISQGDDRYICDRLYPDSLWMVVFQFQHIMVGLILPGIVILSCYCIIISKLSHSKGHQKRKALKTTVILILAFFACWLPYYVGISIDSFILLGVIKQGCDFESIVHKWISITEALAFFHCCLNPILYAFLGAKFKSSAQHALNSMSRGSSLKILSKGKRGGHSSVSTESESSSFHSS

Biodistribution adrenals [1, 5]: 1.16 ± 0.18 %iD/g
Biodistribution blood [1, 5]: 1.50 ± 0.10 %iD/g
Biodistribution colon [1, 5]: 0.78 ± 0.28 %iD/g
Biodistribution femur [1, 5]: 0.86 ± 0.04 %iD/g
Biodistribution heart [1, 5]: 0.90 ± 0.07 %iD/g
Biodistribution kidney [1, 5]: 9.74 ± 0.91 %iD/g
Biodistribution liver [1, 5]: 11.9 ± 1.57 %iD/g
Biodistribution lung [1, 5]: 3.53 ± 1.20 %iD/g
Biodistribution muscle [1, 5]: 0.28 ± 0.02 %iD/g
Biodistribution small intestine [1, 5]: 1.23 ± 0.18 %iD/g
Biodistribution spleen [1, 5]: 2.41 ± 0.34 %iD/g
Biodistribution stomach [1, 5]: 1.72 ± 0.16 %iD/g
Biodistribution tumor (Daudi xenograft) [1, 5]: 18.3±3.7 %iD/g
Initial activity retained in the Daudi xenografts after 48h [1]: ~50%
Stable (intact tracer) in blood, urine and liver homogenates [2]: > 99%
log PO/PBS [3]: -3.0 ± 0.13
Compound: C[C@@H](NC(=O)[C@@H](CCCNC(=N)N)NC(=O)CN1CCN(CC(=O)O)CCN(CC(=O)O)CCN(CC(=O)O)CC1)C(=O)Nc1ccc(C(=O)NCCC[C@@H]2C(=O)N[C@@H](CCCNC(=N)N)C(=O)N[C@@H](Cc3ccc4ccccc4c3)C(=O)NCC(=O)N[C@H](Cc3ccc(O)cc3)C(=O)N2C)cc1 [[^177Lu]DOTA-r-a-ABA-CPCR4] [metal not drawn] (cyclo([2Nal]G[dY][dNMeOrn]([4Abz-dA-dR-DOTA])R))

Biodistribution adrenals [1, 5]: 4.54 ± 1.06 %iD/g
Biodistribution blood [1, 5]: 2.90 ± 0.32 %iD/g
Biodistribution colon [1, 5]: 1.19 ± 0.35 %iD/g
Biodistribution femur [1, 5]: 1.92 ± 0.20 %iD/g
Biodistribution heart [1, 5]: 1.87 ± 0.32 %iD/g
Biodistribution kidney [1, 5]: 10.3 ± 0.26 %iD/g
Biodistribution liver [1, 5]: 27.1 ± 1.87 %iD/g
Biodistribution lung [1, 5]: 7.06 ± 0.67 %iD/g
Biodistribution muscle [1, 5]: 0.58 ± 0.07 %iD/g
Biodistribution pancreas [1, 5]: 0.69 ± 0.14 %iD/g
Biodistribution small intestine [1, 5]: 1.44 ± 0.22 %iD/g
Biodistribution spleen [1, 5]: 6.72 ± 0.70 %iD/g
Biodistribution stomach [1, 5]: 1.95 ± 0.17 %iD/g
Biodistribution tumor (Daudi xenograft) [1, 5]: 17.2±2.0 %iD/g
Initial activity retained in the Daudi xenografts after 48h [1]: ~50%
Stable (intact tracer) in blood, urine and liver homogenates [2]: > 99%
log PO/PBS [3]: -2.8 ± 0.04
Compound: C[C@@H](NC(=O)[C@@H](CCCNC(=N)N)NC(=O)CN1CCN(CC(=O)O)CCN(CC(=O)O)CCN(CC(=O)O)CC1)C(=O)Nc1ccc(C(=O)NCCC[C@@H]2C(=O)N[C@@H](CCCNC(=N)N)C(=O)N[C@@H](Cc3ccc4ccccc4c3)C(=O)NCC(=O)N[C@H](Cc3ccc(O)c(I)c3)C(=O)N2C)cc1 [[^177Lu]DOTA-r-a-ABA-iodoCPCR4] [metal not drawn] (cyclo([2Nal]G[dTyr(3-I)][dNMeOrn]([4Abz-dA-dR-DOTA])R))

Biodistribution brain ([1]; 1h p.i., tracer only, γ-counter, n=4-5): 0.05 ± 0.01 %iD/g
Biodistribution adrenals [1, 5]: 1.5 ± 0.6 %iD/g
Biodistribution femur [1, 5]: 0.6 ± 0.2 %iD/g
Biodistribution heart [1, 5]: 0.9 ± 0.3 %iD/g
Biodistribution kidney [1, 5]: 3.4 ± 0.6 %iD/g
Biodistribution liver [1, 5]: 10.3 ± 0.8 %iD/g
Biodistribution lung [1, 5]: 2.5 ± 0.7 %iD/g
Biodistribution muscle [1, 5]: 0.3 ± 0.1 %iD/g
Biodistribution pancreas [1, 5]: 0.4 ± 0.1 %iD/g
Biodistribution small intestine [1, 5]: 0.9 ± 0.2 %iD/g
Biodistribution spleen [1, 5]: 1.8 ± 0.3 %iD/g
Biodistribution stomach [1, 5]: 1.2 ± 0.3 %iD/g
Biodistribution tumor (Daudi xenograft) [1, 5]: 12.4±3.7 %iD/g
Biodistribution adrenals ([1]; 6h p.i., n=4-5): 0.64 ± 0.13 %iD/g
Biodistribution blood ([1]; 6h p.i., n=4-5): 0.09 ± 0.01 %iD/g
Biodistribution brain ([1]; 6h p.i., n=4-5): 0.02 ± 0.005 %iD/g
Biodistribution femur ([1]; 6h p.i., n=4-5): 0.23 ± 0.02 %iD/g
Biodistribution heart ([1]; 6h p.i., n=4-5): 0.18 ± 0.02 %iD/g
Biodistribution kidney ([1]; 6h p.i., n=4-5): 2.52 ± 0.33 %iD/g
Biodistribution liver ([1]; 6h p.i., n=4-5): 9.59 ± 0.69 %iD/g
Biodistribution lung ([1]; 6h p.i., n=4-5): 0.42 ± 0.06 %iD/g
Biodistribution muscle ([1]; 6h p.i., n=4-5): 0.06 ± 0.01 %iD/g
Biodistribution pancreas ([1]; 6h p.i., n=4-5): 0.09 ± 0.01 %iD/g
Biodistribution small intestine ([1]; 6h p.i., n=4-5): 0.22 ± 0.04 %iD/g
Biodistribution spleen ([1]; 6h p.i., n=4-5): 1.35 ± 0.41 %iD/g
Biodistribution stomach ([1]; 6h p.i., n=4-5): 0.21 ± 0.01 %iD/g
Biodistribution tumor (Daudi xenograft) ([1]; 6h p.i., n=4-5): 6.79 ± 0.68 %iD/g
Initial activity retained in the Daudi xenografts after 48h [1]: 25%
Biodistribution adrenals ([1]; 48h p.i., n=4-5): 0.56 ± 0.08 %iD/g
Biodistribution blood ([1]; 48h p.i., n=4-5): 0.02 ± 0.001 %iD/g
Biodistribution brain ([1]; 48h p.i., n=4-5): 0.007 ± 0.002 %iD/g
Biodistribution femur ([1]; 48h p.i., n=4-5): 0.22 ± 0.05 %iD/g
Biodistribution heart ([1]; 48h p.i., n=4-5): 0.11 ± 0.01 %iD/g
Biodistribution kidney ([1]; 48h p.i., n=4-5): 1.20 ± 0.13 %iD/g
Biodistribution liver ([1]; 48h p.i., n=4-5): 8.25 ± 2.23 %iD/g
Biodistribution lung ([1]; 48h p.i., n=4-5): 0.21 ± 0.06 %iD/g
Biodistribution muscle ([1]; 48h p.i., n=4-5): 0.04 ± 0.005 %iD/g
Biodistribution pancreas ([1]; 48h p.i., n=4-5): 0.08 ± 0.01 %iD/g
Biodistribution small intestine ([1]; 48h p.i., n=4-5): 0.11 ± 0.02 %iD/g
Biodistribution spleen ([1]; 48h p.i., n=4-5): 1.58 ± 0.33 %iD/g
Biodistribution stomach ([1]; 48h p.i., n=4-5): 0.12 ± 0.02 %iD/g
Biodistribution tumor (Daudi xenograft) ([1]; 48h p.i., n=4-5): 3.27 ± 0.41 %iD/g
tissue to tissue ratio at 48 h ([4]; tumor / blood, read-out: Tumor/organ ratio t/blood): 201 ± 27
tissue to tissue ratio at 48 h ([4]; tumor / colon, read-out: Tumor/organ ratio t/colon): 13 ± 5
tissue to tissue ratio at 48 h ([4]; tumor / heart, read-out: Tumor/organ ratio t/heart): 31 ± 4
tissue to tissue ratio at 48 h ([4]; tumor / kidney, read-out: Tumor/organ ratio t/kidney): 2.7 ± 0.4
tissue to tissue ratio at 48 h ([4]; tumor / lung, read-out: Tumor/organ ratio t/lung): 16 ± 5
tissue to tissue ratio at 48 h ([4]; tumor / muscle, read-out: Tumor/organ ratio t/muscle): 85 ± 15
tissue to tissue ratio at 48 h ([4]; tumor / small intestine, read-out: Tumor/organ ratio t/small intestine): 29 ± 6
tissue to tissue ratio at 48 h ([4]; tumor / spleen, read-out: Tumor/organ ratio t/spleen): 2.1 ± 0.5
tissue to tissue ratio at 48 h ([4]; tumor / stomach, read-out: Tumor/organ ratio t/stomach): 27 ± 6
logD ([3]; octanol/PBS): -1.8 ± 0.2
Compound: CN1C(=O)[C@@H](Cc2ccc(O)c(I)c2)NC(=O)CNC(=O)[C@H](Cc2ccc3ccccc3c2)NC(=O)[C@H](CCCNC(=N)N)NC(=O)[C@H]1CCCNC(=O)c1ccc(CNC(=O)CN2CCN(CC(=O)O)CCN(CC(=O)O)CCN(CC(=O)O)CC2)cc1 [[^177Lu]PentixaTher, cyclo(D-3-iodo-Tyr^1-D-[NMe]Orn^2(AMBS-([^177Lu]DOTA)-Arg^3-Nal^4-Gly^5), metal not drawn, reference compound] (cyclo([dTyr(3-I)][dNMeOrn]([4Amb-DOTA])R[2Nal]G))

IC50 (murine CXCR4 (mCXCR4)): 61 ± 17 nM
Compound: [^natLu]DOTA-k-G-ABA-iodoCPCR4 (head to tail) [natLu-complex of entry 10]

IC50 (murine CXCR4 (mCXCR4)): 37 ± 3 nM
Compound: [^natLu]DOTA-r-G-ABA-iodoCPCR4 (head to tail) [natLu-complex of entry 12]
